The test system of one assay is Factor VII. As to conditions: LNP siRNA systems containing these lipids; hepatocytes in vivo; cited from earlier work.
Another assay deals with Mutants of human FKBP12. The conditions noted are these: cited from earlier work.
The test system of assay [1] is EGFP gene. Description: U2OS.EGFP knockdown assay, loss of EGFP fluorescence, high-content automated microscope imaging. As to conditions: ligand added to the DD-SpCas9-DD fusion protein and EGFP guide RNA. The class given is cell-based.
From the text: The low throughput, flow cytometry-readout was replaced with a high-throughput readout using a high-content, automated microscope imaging. This assay can be run in a 96-well format and the data can be analyzed by a high-throughput image analysis platform, called ImageExpress.
The test system of assay [2] is EGFP gene. The assay is described as follows: Decrease in EGFP positive cells in an EGFP-producing cell line treated with SpCas9-DD fusion protein and guide RNA. Format: cell-based. As to conditions: DHFR-SpCas9-DHFR (DSPD); increasing dosages of TMP.
For a further assay, the system named is mammalian DHFR (DHFRts). The conditions noted are these: addition to cells expressing DHFRts; cited from earlier work.
Assay [3] has as its system human embryonic stem cells (hESCs). Description: Mutagenic NHEJ by Cas9-D10A nickase in human embryonic stem cells. The class given is cell-based. The source says: The CRISPR enzyme is Cas9, and may be Cas9 from S. pyogenes or S. pneumoniae. In some embodiments, the CRISPR enzyme directs cleavage of one or both strands at the location of a target sequence, such as within the target sequence and/or within the complement of the target sequence. In some embodiments, the CRISPR enzyme directs cleavage of one or both strands within about 1, 2, 3, 4, 5, 6, 7, 8, 9, 10, 15, 20, 25, 50, 100, 200, 500, or more base pairs from the first or last nucleotide of a target sequence. In some embodiments, a vector encodes a CRISPR enzyme that is mutated to with respect to a corresponding wild-type enzyme such that the mutated CRISPR enzyme lacks the ability to cleave one or both strands of a target polynucleotide containing a target sequence. […] In some embodiments, a Cas9 nickase may be used in combination with guide sequenc(es), e.g., two guide sequences, which target respectively sense and antisense strands of the DNA target. This combination allows both strands to be nicked and used to induce NHEJ.

The nature of assay [4]: Double nicking indel formation with sgRNA pairs. Format: cell-based. The conditions noted are these: substitution of Cas9n with Cas9H840A with a given sgRNA pair; eukaryotic system. The source says: Aspects of the invention relate to the expression of the gene product being decreased or a template polynucleotide being further introduced into the DNA molecule encoding the gene product or an intervening sequence being excised precisely by allowing the two 5′ overhangs to reanneal and ligate or the activity or function of the gene product being altered or the expression of the gene product being increased. In an embodiment of the invention, the gene product is a protein. Only sgRNA pairs creating 5′ overhangs with less than 8 bp overlap between the guide sequences (offset greater than −8 bp) were able to mediate detectable indel formation. […] Nonetheless, a pair of sgRNAs that will generate a 5′ overhang with Cas9n should in principle generate the corresponding 3′ overhang instead, and double nicking. […] Accordingly, in some embodiments, a recombination template is also provided. A recombination template may be a component of another vector as described herein, contained in a separate vector, or provided as a separate polynucleotide. In some embodiments, a recombination template is designed to serve as a template in homologous recombination, such as within or near a target sequence nicked or cleaved by a CRISPR enzyme as a part of a CRISPR complex. […]

The subject of the next assay is dystrophin. As to conditions: across 48 weeks; cited from earlier work.

With “1,2-dilinoleyloxy-keto-N,N-dimethyl-3-aminopropane [DLinKDMA]”, the “gene silencing potency series” value in the assay on Factor VII is “DLinKC2-DMA>DLinKDMA>DLinDMA>>DLinDAP”. `CCCCC/C=C\C/C=C\CCCCCCCC(=O)OCC(CN(C)C)OC(=O)CCCCCCC/C=C\C/C=C\CCCCC` (stereo not shown) [DLinDAP, 1,2-dilineoyl-3-dimethylammonium-propane]: in the assay with Factor VII, the “gene silencing potency series” value is “DLinKC2-DMA>DLinKDMA>DLinDMA>>DLinDAP”. `CCCCC/C=C\C/C=C\CCCCCCCCOCC(CN(C)C)OCCCCCCCC/C=C\C/C=C\CCCCC` (stereo not shown) [DLinDMA, 1,2-dilinoleyloxy-3-N,N-dimethylaminopropane]: the “gene silencing potency series” value with Factor VII was “DLinKC2-DMA>DLinKDMA>DLinDMA>>DLinDAP”.

Consider `CCCCC/C=C\C/C=C\CCCCCCCCC1(CCCCCCCC/C=C\C/C=C\CCCCC)OCC(CCN(C)C)O1` (stereo not shown) [DLinKC2-DMA, 1,2-dilinoleyl-4-(2-dimethylaminoethyl)-[1,3]-dioxolane], for which the “gene silencing potency series” value in the assay with Factor VII is “DLinKC2-DMA>DLinKDMA>DLinDMA>>DLinDAP”.

As for `CC[C@H](C(=O)N1CCCC[C@H]1C(=O)O[C@H](CCc1ccc(OC)c(OC)c1)c1cccc(OCCN2CCOCC2)c1)c1cc(OC)c(OC)c(OC)c1` [Shield-1], in the assay with Mutants of human FKBP12, the “binding and stabilization of the DD” value is “bind to and stabilize the DD in a dose-dependent manner”. Turning to `COc1cc(Cc2cnc(N)nc2N)cc(OC)c1OC` [TMP, trimethoprim], in the assay on EGFP gene [1], the “Effect of added DD ligand on the fusion protein's reduction of EGFP fluorescence” value is “increased the effect of the DSPD fusion protein in a dose-dependent manner”. In addition, the “effect of ligand addition on the effect of the SpCas9-DD fusion protein” value with EGFP gene [2] is “increased the effect of the SpCas9-DD fusion protein in a dose-dependent manner”. `CN(Cc1cnc2nc(N)nc(N)c2n1)c1ccc(C(=O)N[C@@H](CCC(=O)O)C(=O)O)cc1` [methotrexate]: the “degradation of DHFRts protein” value in the assay on mammalian DHFR (DHFRts) is given as “inhibited degradation of the protein partially”.

As for “Cas9-D10A: Cas9 nickase with the D10A mutation”, the “efficiency relative to nuclease (regular Cas9 without D10 mutation)” value in assay [3] (double nickase, two sgRNAs targeted to different strands at the same location, hESCs) is “about 50%”. Moreover, the “induction of NHEJ and indels” value in assay [3] (single nickase, with a single sgRNA) was “unable to induce NHEJ and create indels”. For Cas9H840A: Cas9 with the H840A mutation, the indel formation result in assay [4] is on record as “no indel formation is observed”.

With eteplirsen, in the assay with dystrophin, the “Dystrophin positive fibers compared to baseline, average” value is reported as 47% and the Functional benefit result was “significant functional benefit”.

These data come from patent US12435320B2, “CRISPR having or associated with destabilization domains” (The Broad Institute, Inc., priority 2014, dated 2025).
